Reference: PMC10821035, “Silver and Copper Complexes with Ibuprofen and Caffeine—Preparation and Evaluation of Their Selected Biological Effects” (Molecules, 2024)
Read-outs that look alike come from different tables or passages of the source.

What was measured:
[1] = tested on: Staphylococcus epidermidis ATCC 12228; test: Disc diffusion test (Kirby–Bauer); format: cell-based; conditions: concentration according to MIC, 6 mm filter discs
Procedure: (§1) The bacterial strains Bacillus subtilis ATCC 6637, Bacteroides fragilis ATCC 25285, Clostridium bifermentans ATCC 638, Escherichia coli ATCC 35218, Enterococcus faecalis ATCC 29212, Pseudomonas aeruginosa ATCC 27853, Staphylococcus aureus ATCC 6538, Staphylococcus aureus ATCC 25923, Staphylococcus aureus ATCC 29213, Staphylococcus aureus ATCC 43300, and Staphylococcus epidermidis ATCC 12228 were cultured in Mueller–Hinton medium (Oxoid, Basingstoke, UK) at 37 °C for 24 h.
(§2) The antimicrobial sensibility assay was performed according to the Kirby–Bauer method using 6 mm filter discs. Mueller–Hinton agar (Oxoid) was poured onto Petri dishes (90 mm), and saturated filter discs at the concentration determined as the MIC were placed onto the agar surface after distributing bacteria on the agar. The Petri dishes were incubated at 37 °C for 24 h.

[2] = tested on: Bacillus subtilis ATCC 6637; test: Disc diffusion test (Kirby–Bauer); format: cell-based; conditions: concentration according to MIC, 6 mm filter discs
Procedure: as §1, §2

[3] = tested on: Staphylococcus aureus ATCC 43300; test: Disc diffusion test (Kirby–Bauer); format: cell-based; conditions: concentration according to MIC, 6 mm filter discs
Procedure: as §1, §2

[4] = tested on: Bacteroides fragilis ATCC 25285; test: Disc diffusion test (Kirby–Bauer); format: cell-based; conditions: concentration according to MIC, 6 mm filter discs
Procedure: as §1, §2

[5] = tested on: Enterococcus faecalis ATCC 29212; test: Disc diffusion test (Kirby–Bauer); format: cell-based; conditions: concentration according to MIC, 6 mm filter discs
Procedure: as §1, §2

[6] = tested on: Pseudomonas aeruginosa ATCC 27853; test: Disc diffusion test (Kirby–Bauer); format: cell-based; conditions: concentration according to MIC, 6 mm filter discs
Procedure: as §1, §2

[7] = tested on: Escherichia coli ATCC 25218; test: Disc diffusion test (Kirby–Bauer); format: cell-based; conditions: concentration according to MIC, 6 mm filter discs
Procedure: as §1, §2

[8] = tested on: Staphylococcus aureus ATCC 29213; test: Disc diffusion test (Kirby–Bauer); format: cell-based; conditions: concentration according to MIC, 6 mm filter discs
Procedure: as §1, §2

[9] = tested on: Staphylococcus aureus ATCC 6538; test: Disc diffusion test (Kirby–Bauer); format: cell-based; conditions: concentration according to MIC, 6 mm filter discs
Procedure: as §1, §2

[10] = tested on: Staphylococcus aureus ATCC 25923; test: Disc diffusion test (Kirby–Bauer); format: cell-based; conditions: concentration according to MIC, 6 mm filter discs
Procedure: as §1, §2

ovine COX-1 = biological target: T1, ovine COX-1 (Ovis aries, UniProt P05979); test: COX (ovine/human) Inhibitor Screening Assay, COX-1; format: biochemical
T1 construct: purchased Cayman Chemicals
T1 sequence (P05979 25-600): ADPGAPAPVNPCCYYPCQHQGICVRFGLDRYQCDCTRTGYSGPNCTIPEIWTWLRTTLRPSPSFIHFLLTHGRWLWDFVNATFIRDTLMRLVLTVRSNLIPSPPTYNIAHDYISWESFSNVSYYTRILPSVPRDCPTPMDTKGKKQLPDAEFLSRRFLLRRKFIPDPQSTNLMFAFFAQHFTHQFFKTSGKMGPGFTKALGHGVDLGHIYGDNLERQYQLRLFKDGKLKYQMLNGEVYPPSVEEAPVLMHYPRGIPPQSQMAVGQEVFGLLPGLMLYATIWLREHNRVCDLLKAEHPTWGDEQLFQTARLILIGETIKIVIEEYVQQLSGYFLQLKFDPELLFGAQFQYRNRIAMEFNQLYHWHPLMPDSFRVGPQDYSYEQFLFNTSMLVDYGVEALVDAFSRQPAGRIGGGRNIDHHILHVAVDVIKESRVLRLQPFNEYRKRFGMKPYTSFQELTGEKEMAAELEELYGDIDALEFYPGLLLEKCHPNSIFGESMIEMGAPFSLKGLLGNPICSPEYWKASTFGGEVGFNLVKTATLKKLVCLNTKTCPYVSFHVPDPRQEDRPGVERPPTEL
Procedure: The ability of the obtained complexes to inhibit cyclooxygenase activity was measured using a COX (ovine/human) Inhibitor Screening Assay Kit (Cayman Chemicals, MI, USA) with ovine COX-1 and human recombinant COX-2. The amount of prostaglandin, dependent on the COX activity, after exposure to the tested complexes was calculated from the standard curve. […] The selectivity indices (SIs) were calculated according to the formula COX-1 IC50/COX-2 IC50.

[11] = tested on: Staphylococcus epidermidis ATCC 12228; test: MIC by broth microdilution; format: cell-based
Procedure: as §1
(§3) The minimal inhibitory concentration (MIC) was determined by the broth microdilution method according to the standards of the Clinical and Laboratory Standards Institute (CLSI) manuals in 96-well plates. All stock solutions of the investigated complexes were prepared in DMSO with concentrations of 2 mg mL^−1.
(§4) The MIC was estimated as the lowest concentration of the complex inhibiting bacterial growth. As negative controls, samples without inoculum at each complex concentration were used, whereas the positive control contained the inoculum but not the investigated complexes. Each complex was tested at concentrations between 2.5 and 160 µg mL^−1. The first well contained the highest concentration, and further concentrations were achieved by serial dilution. The assay was performed in duplicate with three repetitions for each bacterial strain.

[12] = tested on: Bacillus subtilis ATCC 6637; test: MIC by broth microdilution; format: cell-based
Procedure: as §1, §3, §4

[13] = tested on: Staphylococcus aureus ATCC 43300; test: MIC by broth microdilution; format: cell-based
Procedure: as §1, §3, §4

[14] = tested on: Bacteroides fragilis ATCC 25285; test: MIC by broth microdilution; format: cell-based
Procedure: as §1, §3, §4

[15] = tested on: Enterococcus faecalis ATCC 29212; test: MIC by broth microdilution; format: cell-based
Procedure: as §1, §3, §4

[16] = tested on: Pseudomonas aeruginosa ATCC 27853; test: MIC by broth microdilution; format: cell-based
Procedure: as §1, §3, §4

[17] = tested on: Escherichia coli ATCC 25218; test: MIC by broth microdilution; format: cell-based
Procedure: as §1, §3, §4

[18] = tested on: Staphylococcus aureus ATCC 29213; test: MIC by broth microdilution; format: cell-based
Procedure: as §1, §3, §4

[19] = tested on: Staphylococcus aureus ATCC 6538; test: MIC by broth microdilution; format: cell-based
Procedure: as §1, §3, §4

[20] = tested on: Staphylococcus aureus ATCC 25923; test: MIC by broth microdilution; format: cell-based
Procedure: as §1, §3, §4

[21] = tested on: all tested bacterial strains; test: MIC by broth microdilution, all tested bacterial strains; format: cell-based
Procedure: as §1, §3, §4

CCD-18Co cells = test: XTT cytotoxicity/proliferation assay on CCD-18Co fibroblasts; format: cell-based, human; conditions: 24 h incubation, XTT test
Procedure: The cell line CCD-18Co (fibroblasts from the colon of a healthy human) was obtained from the American Type Cells Collections (Cat. No. ATCC-CRL-1459). The cells were cultured in Minimum Essential Medium Eagle (MEM) with Earle’s salts, L-glutamine, sodium bicarbonate, and phenol red, supplemented with 10% fetal bovine serum (FBS), 1% non-essential amino acids (NEAAs), and 1% penicillin/streptomycin solution (P/S), all purchased from Sigma-Aldrich (St. Louis, MO, USA). The incubation parameters were 37 ℃, 5% CO2, and 95% relative humidity. The cytotoxicity of the tested complexes (Ag-IBU, Ag-IBU-CAF, Cu-IBU, and Cu-IBU-CAF) was derived using two distinct parameters: (1) tetrazolium salt (XTT) reduction by mitochondrial succinate dehydrogenases using an XTT (Tetrazolium hydroxide) Kit; and (2) neutral red (NR) dye uptake and incorporation within lysosomes using an NR (Neutral Red) Kit. Both kits were produced by Xenometrix AG, Allschwil, Switzerland. The assays were carried out without any substantial changes to the test procedures provided by the manufacturer. The stock solutions of the tested compounds at 20 mg mL^−1 were prepared in DMSO. […] The cells were incubated for the next 3 h, gently mixed, and the absorbance was read at 480 nm with a reference wavelength of 690 nm using the multi-mode plate reader FLUOstar Omega (BMG Labtech, Ortenberg, Germany). […]

Row | IC50 COX-1 (ovine COX-1) | MIC [11] | MIC [12] | MIC [13] | MIC [14] | MIC [15] | MIC [16] | MIC [17] | MIC [18] | MIC [19] | SMILES | Inhibition Halo [1] | Inhibition Halo [2] | Inhibition Halo [3] | Inhibition Halo [4] | Inhibition Halo [5] | Inhibition Halo [6] | Inhibition Halo [7] | Inhibition Halo [8] | Inhibition Halo [9] | Inhibition Halo [10] | other results
1 | 64.6 µg/mL | 20 µg/mL | 10 µg/mL | 20 µg/mL | 20 µg/mL | 10 µg/mL | 10 µg/mL | 10 µg/mL | 5 µg/mL | 10 µg/mL | CC(C)Cc1ccc(C(C)C(=O)[O][Ag])cc1 (centres unmarked) [Ag-IBU] | 10 mm | 11 mm | 13 mm | 7 mm | 14 mm | 10 mm | 9 mm | 7 mm | 14 mm | 14 mm | MIC [20]: 10 µg/mL; MIC ([21]; 2.5–160 µg mL^−1): ≤ 20 µg/mL; 24h-IC50 (CCD-18Co cells): 25.10 µg/mL
2 |  |  |  |  |  |  |  |  |  |  | CC(C)Cc1ccc(C(C)C(=O)O)cc1 (racemic) [IBU, (RS)-2-(4-(2-methylpropyl)phenyl)propanoic acid, reference compound] |  |  |  |  |  |  |  |  |  |  | MIC ([21]; 2.5–160 µg mL^−1, read-out: MIC): > 200 µg/mL
3 | 62.5 µg/mL | 10 µg/mL | 10 µg/mL | 10 µg/mL | 20 µg/mL | 5 µg/mL | 10 µg/mL | 5 µg/mL | 5 µg/mL | 5 µg/mL | CC(C)Cc1ccc(C(C)C(=O)[O][Ag])cc1.Cn1c(=O)c2c(ncn2C)n(C)c1=O (centres unmarked) [Ag-IBU-CAF] | 11 mm | 13 mm | 15 mm | 10 mm | 16 mm | 15 mm | 17 mm | 12 mm | 15 mm | 16 mm | MIC [20]: 5 µg/mL; MIC ([21]; 2.5–160 µg mL^−1): ≤ 20 µg/mL; 24h-IC50 (CCD-18Co cells): 33.35 µg/mL
